Measurements as given in publication PMC11505911, “Design and Synthesis of Small Molecule Probes of MDA-9/Syntenin” (Biomolecules, 2024).
Several values for one entry are separate records, joined by “and”; a condition that tells them apart may be missing. Equal entries are not always repeated. Where two headings read alike, the source gives them in different places.

Assays:
[1] = biological target: T1, MDA-9/Syntenin (Homo sapiens, UniProt O00560); parameters: method as in printed; conditions: pre-PDZ1i molecules studied en route to the discovery of PDZ1i; ref not given; cited from earlier work
T1 construct: made in house
T1 sequence (O00560 1-298): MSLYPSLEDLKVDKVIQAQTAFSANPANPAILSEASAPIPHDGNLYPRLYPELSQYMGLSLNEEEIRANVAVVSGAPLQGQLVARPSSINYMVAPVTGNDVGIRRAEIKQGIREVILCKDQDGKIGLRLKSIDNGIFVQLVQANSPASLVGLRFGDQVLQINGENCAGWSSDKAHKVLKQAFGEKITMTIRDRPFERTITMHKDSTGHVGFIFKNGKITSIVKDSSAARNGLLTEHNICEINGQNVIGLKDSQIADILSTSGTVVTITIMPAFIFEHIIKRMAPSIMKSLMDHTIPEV

[2] = biological target: T1, MDA-9/Syntenin; assay: Fluorescence polarization titration of ligands into MDA-9/Syntenin; type: binding; conditions: 20 mM Tris-HCl, 100 mM NaCl, 0.01% PEG800, 0.05% Tween20, pH 7.4; single-site fit; minimum of two titrations
Method: Spectrofluorimetric titrations were performed on a Horiba QM400 spectrometer (HORIBA Scientific, Piscataway, NJ, USA). Excitation and emission wavelengths of 280 nm and 340 nm (600 nm for the reference emission wavelength) were used, with 5 nm excitation and 12 nm emission band widths, as described earlier. Experiments were performed in ratiometric mode, with excitation and emission polarizers set to 0,0 angles at room temperature. The titration buffer was 20 mM Tris-HCl buffer, pH 7.4. The stock concentrations of protein and ligands were 40 and 300–1000 μM, respectively. Whereas the protein was prepared in the titration buffer, the ligands were prepared in DMSO. The ligands (either URD001, NGI03, or NVS125) were titrated into the protein solution in aliquots, and saturable changes in fluorescence polarization were used to calculate the affinity. […] The emission intensities were corrected for dilution effects (<10% overall). The observed change in fluorescence polarization relative to initial signal (F0) was fitted using a standard single-site binding model to obtain the dissociation constant (KD) and the maximal change in fluorescence polarization (ΔF) at saturation.
We then explored fluorescence polarization (λEX = 280 nm, λEM = 340 nm; λREF = 600 nm) in 20 mM Tris-HCl containing 100 mM NaCl, 0.01% PEG800, and 0.05% Tween20, pH 7.4. Polarization relies on the change in molecular diffusion of the protein in the presence of a ligand as a probe of interaction. This technique worked well for PDZ1i, which presented a classic hyperbolic binding profile. […] For NGI03 and URD001, KDs of 1.1 and 3.0 μM, respectively, were measured. […] This implies that no reliable fit of the data could be obtained. Yet, based on the profile, the KD is likely to be more than 200 μM.

[3] = Aqueous solubility (qualitative); type: physicochemical; conditions: authors' observation
[4] = biological target: T1, MDA-9/Syntenin; conditions: cited from earlier work
[5] = parameters: method as in printed; conditions: stated in introduction; ref not given; cited from earlier work

Molecule | IC50 [1] [µM] | further results
Cc1cc(=O)n2nc(COc3ccccc3)nc2[nH]1 [30A9] | 197 | 
Cc1cc(=O)n2nc(C(=O)Nc3ccc(O)cc3)nc2[nH]1 [112D11] | 245 | 
Cc1cc(=O)n2nc(C(=O)Nc3ccc(N)cc3)nc2[nH]1 [112E7] | 944 | 
O=C(Nc1ccc(O)cc1)c1nc2[nH]c3c(c(=O)n2n1)CCC3 [112E12] | 1610 | 
O=C(Nc1ccc(O)c(F)c1)c1nc2[nH]c3c(c(=O)n2n1)CCC3 [112F12] | 166 | 
Cc1cc(=O)n2nc(C(=O)Nc3cc(Cl)c(O)c(Cl)c3)nc2[nH]1 [112G1] | 57.3 | 
Cc1cc(=O)n2nc(C(=O)Nc3ccc(O)c(F)c3)nc2[nH]1 [112G2] | 147 | 
O=C(Nc1ccc(O)c(Cl)c1)c1nc2[nH]c3c(c(=O)n2n1)CCC3 [112G3] | 119 | 
Cc1cc(=O)n2nc(C(=O)Nc3cc(Cl)c(N)c(Cl)c3)nc2[nH]1 [112G4] | 34.3 | 
Nc1ccc(NC(=O)c2nc3[nH]c4c(c(=O)n3n2)CCC4)cc1 [112G11] | 263 | 
Cc1c(C)c(NC(=O)c2nc3[nH]c4c(c(=O)n3n2)CCC4)c(C)c(C)c1N [113B8] | 151 | 
Cc1cc(NC(=O)OC(C)(C)C)c(C)cc1CCCC(c1nnc(-c2ccccc2)o1)c1nnc(-c2ccccc2)o1 [CMPD10] | 151 | 
Cc1cc(NC(=O)c2nc3[nH]c4c(c(=O)n3n2)CCC4)c(C)cc1NC(=O)CC(c1nnc(-c2ccccc2)o1)c1nnc(-c2ccccc2)o1 [NGI03, N-(4-(3,3-bis(5-phenyl-1,3,4-oxadiazol-2-yl)propanamido)-2,5-dimethylphenyl)-8-oxo-5,6,7,8-tetrahydro-4H-cyclopenta[d][1,2,4]triazolo[1,5-a]pyrimidine-2-carboxamide] |  | Kd [2]: 1.1 µM; aqueous solubility [3]: aqueous solubility issues
Cc1ccc(-c2nnc(CCC(=O)Cc3cc(C)c(C(=O)O)cc3C)o2)cc1 [NVS125] |  | Kd [2]: > 200 µM; aqueous solubility [3]: good aqueous solubility
Cc1cc(NC(=O)c2nc3[nH]c4c(c(=O)n3n2)CCC4)c(C)cc1NC(=O)CCc1nnc(-c2ccccc2)o1 [PDZ1i] |  | Kd [2]: 78 µM and ~78 µM; Kd ([4]; binding domain PDZ1): 60 to 70 µM; aqueous solubility [5]: poor aqueous solubility
Cc1cc(NC(=O)c2nc3[nH]c4c(c(=O)n3n2)CCC4)c(C)cc1CCCC(c1nnc(-c2ccccc2)o1)c1nnc(-c2ccccc2)o1 [URD001, N-(4-(4,4-bis(5-phenyl-1,3,4-oxadiazol-2-yl)butyl)-2,5-dimethylphenyl)-8-oxo-5,6,7,8-tetrahydro-4H-cyclopenta[d][1,2,4]triazolo [1,5-a]pyrimidine-2-carboxamide] |  | Kd [2]: 3 µM; aqueous solubility [3]: aqueous solubility issues
Ephrin hexapeptide: hexapeptide epitope from ephrin B binding the PDZ2 domain (NIYYKV; Paralogue and species inferred; terminal caps unknown) |  | Kd ([4]; binding domain PDZ2): 790 µM
IVMT-Rx-3: polyethylene glycol conjugation from truncated PDZ1i with a PDZ2-binding hexapeptide (TNEYYF) |  | Kd ([4]; binding domain PDZ1, PDZ2): 63 µM
Neurexin hexapeptide: hexapeptide epitope from neurexin binding the PDZ2 domain (TNEYYV) |  | Kd ([4]; binding domain PDZ2): 100 µM
